{"source": "patent US20150051246A1", "about": "(priority 2013, published 2015)", "key": {"healthy adults [1]": {"test_system": "healthy adults", "assay": "Verbal Learning Task (VLT) in healthy adults, 18 to 35 years", "type": "in vivo, human", "text": "The study utilized Verbal Learning Task (VLT) to analyze the increased number of words remembered following roflumilast administration. The VLT consisted of displaying 30 monosyllable words on a computer screen for a period of 60 seconds. Immediately after the presentation of the words on the computer screen subjects were asked to report as many words as they could recall by memory. This process (presentation and recall) was repeated further two times (VLT, immediate recall, 3 trials). In addition, 45 min and 24 h after the last presentation, subjects were again asked to report as many words as they could recall by memory (VLT, delayed recall 45 min and 24 h). The set of three recall trials was conducted 60 minutes following administration of the roflumilast therapy\n(§1) Statistical Data Analyses Human data was analyzed using IBM SPSS Statistics version 20. General Linear Models for repeated measures were applied with the placebo condition included as contrast. Statistical outcomes for Tests of Within-Subjects Effects and Tests of Within-Subjects Contrasts were regarded for immediate and delayed free recall scores and for the summed immediate recall score (i.e. immediate 1+immediate 2+immediate 3). The factor Treatment (4 levels; placebo, roflumilast 100 mcg, roflumilast 300 mcg and roflumilast 1000 mcg) was included as a within subjects factor. For the analysis of the EEG data, the factor Channel (5 levels; Fz, FCz, Cz, CPz, and Pz) was included as a second within subjects factor. Peak and latency values of three memory related ERP's were analysed; i.e. P300, N400 and P600. In case of significant findings (p<0.05) post-hoc t-tests were performed to reveal which of the five midline electrodes contributed to the effect"}, "healthy adults [2]": {"test_system": "healthy adults", "assay": "EEG Event Related Potentials (P300, N400, P600) during VLT in healthy adults", "type": "in vivo, human", "settings": "for ERP P600 amplitude (in words): 100 mcg, during VLT", "procedure": "An electroencephalogram (EEG) cap was used to place a set of 32 EEG electrodes according to the international 10-20 system on the subjects. Event Related Potentials (ERPs) were extracted by averaging the responses within an epoch of 100 ms before and 1000 ms after stimulus onset covering P300, N400, and P600. Separate averages were made for correct and incorrect responses within a task and for different trial types. EEG measurements were done simultaneously with VLT testing. ERPs were calculated from the words that were called during immediate recall (encoding), and from the words that were recognized and from those that were not during the recognition condition at 45 minutes. The ERP components of P300, N400, and P600 were compared to examine whether the initial stimulus processing during the learning trials differs from word to word. Finally, ERPs to the old and new items during the recognition task were measured.\nas §1"}, "male Wistar rats": {"test_system": "male Wistar rats", "assay": "Object recognition task (ORT), scopolamine induced memory deficit", "type": "in vivo", "procedure": "Memory acquisition processes are investigated using the object recognition test (ORT).\nTwenty four 3-4 month old male Wistar rats (Charles River, Sulzfeld, Germany) were used for the study. All animals were housed individually in standard green line Tecniplast IVC cages on stardust bedding. The animals were housed on a reversed 12/12 h light/dark cycle (lights on from 07:00 pm to 07:00 am) and had free access to food and water. The rats were housed and tested in the same room. A radio, playing softly, provided background noise in the room. All testing was performed between 09:00 am and 06:00 pm.\nDrugs were prepared daily, except as indicated otherwise. Roflumilast (Takeda, Konstanz, Germany, MW 403.21) was dissolved in 98% methylcellulose solution (0.5% methylcellulose) and 2% Tween 80. Roflumilast in doses of 0 (vehicle), 0.0001, 0.0003, 0.001, 0.003, 0.01 and 0.03 mg/kg was administered intraperitonally (ip, injection volume 1 ml/kg). […] All compounds were administered 30 min before T1.\nThe testing order of conditions was determined randomly. The experimenter was blind of testing protocol. A within design was used and all treatment conditions were balanced over rats. The ORT was performed as described elsewhere (Ennaceur and Delaceur, 1988, Behav Brain Res, Vol 31, pp 47-59; Akkerman et al; 2012, Behav Brain Res, Vol 232, pp 335-347). The apparatus consisted of a circular arena, 83 cm in diameter. The back half of the 40 cm high wall was made of grey PVC and the front was made of transparent PVC. Fluorescent red tubes and a light bulb provided a constant illumination of about 20 lux on the floor of the apparatus. The light intensity was equal in the different parts of the apparatus.\nTwo objects were placed in symmetrical positions at the mid-line between the gray and transparent halves of the arena, about ten centimeters away from wall. Four different sets of objects were available: 1) a standard 1 L brown transparent glass bottle (diameter 10 cm, height 22 cm) filled with water, 2) a metal cube (10.0×5.0×7.5 cm) with two holes (diameter 1.9 cm), 3) a cone consisting of a gray PVC base (maximal diameter 18 cm) with a collar on top made of brass (total height 16 cm), and 4) an aluminum cube with a tapering top (13.0×8.0×8.0 cm). Objects were presented to the animals in a balanced manner to avoid object or place biases. Rats were unable to displace the objects.\nA test session comprised two trials, each with durations of 3 min. During the learning trial (T1) the apparatus contains two identical objects (object a1 and a2). Rats were always introduced into the apparatus with their nose towards the transparent wall segment (i.e. facing outwards to the front of the arena). Subsequently, rats were put back in its home cage for a 1 h interval. After the retention interval, rats were put back into the arena for the […] (T2). In T2, the two objects from T1 were replaced by one identical copy (a3) and a different novel object (b). The times spent in exploring each object during T1 and T2 were recorded manually on a personal computer.\nExploration was defined in the following manner: directing the nose to the object at a distance of no more than 2 cm and/or touching the object with the nose. Sitting on the object was not considered as exploratory behavior. In order to avoid the presence of olfactory cues, the objects were thoroughly cleaned with a 70% ethanol solution before each trial.\nPrior to compound testing, the animals were handled for 5 min on 2 consecutive days and allowed to explore the ORT arena, also for 5 min. Subsequently, the animals were accustomed to the complete ORT testing procedure without receiving any injection.\nThe readout parameters of the object recognition task are the times that rats spent on exploring each object during T1 and T2. The exploration time (in seconds) of each object during T1 are presented as “a1” and “a2”."}}}
{"smiles": "O=C(Nc1c(Cl)cncc1Cl)c1ccc(OC(F)F)c(OCC2CC2)c1", "note": "[roflumilast, N-(3,5-dichloropyridin-4-yl)-3-cyclopropylmethoxy-4-difluoromethoxybenzamide]", "values": [{"measurement": "number of correct words recalled after 3rd trial (in words)", "setting": "healthy adults [1]; 100 mcg", "result": "significant increase in the number of correct words recalled"}, {"measurement": "placebo-corrected fold-improvement", "setting": "healthy adults [1]; 100 mcg, 3rd trial, healthy volunteer study", "result": 1.12}, {"measurement": "number of words on the 3rd trial", "setting": "healthy adults [1]; 100 mcg, young volunteers", "result": 23.7, "unit": "words"}, {"measurement": "number of correct words recalled (in words)", "setting": "healthy adults [1]; 300 mcg and 1000 mcg, FIG. 2", "result": "some effect"}, {"measurement": "improvement in number of correct words recalled, average", "setting": "healthy adults [1]; single oral dose 100 mcg, after the third trial", "result": 2.5, "unit": "words"}, {"measurement": "ERP P600 amplitude (in words)", "setting": "healthy adults [2]", "result": "strongest increase of amplitude"}, {"measurement": "ERP P600 amplitude (in words)", "setting": "healthy adults [2]; listed as Roflumilast", "result": "increased amplitude"}, {"measurement": "ERP P600 (in words)", "setting": "healthy adults [2]; 300 mcg and 1000 mcg, FIG. 3", "result": "some effect"}, {"measurement": "effect on memory performance (in words)", "setting": "male Wistar rats; 0.0001 mg/kg ip, scopolamine deficit", "result": "no effect on memory performance"}, {"measurement": "effect on memory performance (in words)", "setting": "male Wistar rats; 0.0003 mg/kg and 0.001 mg/kg, scopolamine deficit", "result": "intermediate memory improvement"}, {"measurement": "effect on memory function (in words)", "setting": "male Wistar rats; doses of 0.003 mg/kg and higher, scopolamine deficit", "result": "fully restore memory function"}, {"measurement": "d2", "setting": "male Wistar rats; rat, in vivo", "result": 0.34}, {"measurement": "d2", "setting": "male Wistar rats; roflumilast 0.0001 mg/kg ip + scopolamine 0.1 mg/kg, 1 h retention", "result": 0.05}, {"measurement": "d2", "setting": "male Wistar rats; roflumilast 0.0003 mg/kg ip + scopolamine 0.1 mg/kg, 1 h retention", "result": 0.16}, {"measurement": "d2", "setting": "male Wistar rats; roflumilast 0.001 mg/kg ip + scopolamine 0.1 mg/kg, 1 h retention", "result": 0.27}, {"measurement": "d2", "setting": "male Wistar rats; roflumilast 0.003 mg/kg ip + scopolamine 0.1 mg/kg, 1 h retention", "result": 0.43}, {"measurement": "d2", "setting": "male Wistar rats; roflumilast 0.03 mg/kg ip + scopolamine 0.1 mg/kg, 1 h retention", "result": 0.30}, {"measurement": "d2", "setting": "male Wistar rats; scopolamine 0.1 mg/kg + roflumilast 0.0001 mg/kg ip, rof + dpz study", "result": 0.04}, {"measurement": "effect on memory function (in words)", "setting": "male Wistar rats; single ip dose 0.003 mg/kg, scopolamine deficit", "result": "fully restore spatial memory function"}, {"measurement": "effect on memory function (in words)", "setting": "male Wistar rats; single ip doses 0.01, 0.03, 0.001 and 0.0003 mg/kg", "result": "increasingly less efficacy"}]}
